# From patent publication US20140179664A1, “Heterocyclyl Pyrimidine Analogues As JAK Inhibitors” (Cellzome Limited, priority 2011, published 2014)
# Molecular target: T1, JAK3 (Homo sapiens, UniProt P52333)
# T1 construct: endogenous in cells; host or cells: Molt4 (ATCC CRL-1582) and Ramos (ATCC CRL-1596), mixed lysate 1:2
# T1 sequence (P52333 1-1124): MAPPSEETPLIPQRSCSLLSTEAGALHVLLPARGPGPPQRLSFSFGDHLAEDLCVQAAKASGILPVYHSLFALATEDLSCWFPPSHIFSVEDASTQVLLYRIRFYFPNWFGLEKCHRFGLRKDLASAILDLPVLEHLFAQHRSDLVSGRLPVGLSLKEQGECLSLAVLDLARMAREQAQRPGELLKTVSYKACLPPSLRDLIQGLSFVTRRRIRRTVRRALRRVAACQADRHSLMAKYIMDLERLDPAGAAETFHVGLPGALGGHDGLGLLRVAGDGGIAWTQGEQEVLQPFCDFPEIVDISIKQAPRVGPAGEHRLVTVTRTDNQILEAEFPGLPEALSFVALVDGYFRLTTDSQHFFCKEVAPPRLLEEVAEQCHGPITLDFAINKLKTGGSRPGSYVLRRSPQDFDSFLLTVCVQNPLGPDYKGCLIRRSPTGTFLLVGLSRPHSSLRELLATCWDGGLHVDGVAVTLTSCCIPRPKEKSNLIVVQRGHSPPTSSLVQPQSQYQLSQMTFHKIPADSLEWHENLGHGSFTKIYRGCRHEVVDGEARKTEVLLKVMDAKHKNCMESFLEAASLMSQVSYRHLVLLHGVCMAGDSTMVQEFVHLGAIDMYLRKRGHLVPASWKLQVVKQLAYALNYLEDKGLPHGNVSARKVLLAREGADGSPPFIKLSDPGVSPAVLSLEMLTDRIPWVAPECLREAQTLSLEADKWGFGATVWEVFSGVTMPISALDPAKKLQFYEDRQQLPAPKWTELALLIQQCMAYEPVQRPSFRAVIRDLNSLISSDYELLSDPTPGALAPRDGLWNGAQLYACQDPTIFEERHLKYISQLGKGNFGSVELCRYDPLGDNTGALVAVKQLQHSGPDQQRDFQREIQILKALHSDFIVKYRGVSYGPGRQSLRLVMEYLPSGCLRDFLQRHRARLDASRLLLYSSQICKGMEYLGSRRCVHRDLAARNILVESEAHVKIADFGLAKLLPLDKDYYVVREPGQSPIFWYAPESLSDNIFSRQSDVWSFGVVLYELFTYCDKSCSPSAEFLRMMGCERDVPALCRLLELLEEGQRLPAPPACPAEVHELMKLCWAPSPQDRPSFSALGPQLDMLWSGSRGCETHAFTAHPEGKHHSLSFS
# Experiment: Kinobeads assay, JAK3
# Format: binding
# Conditions: mixed Molt4/Ramos lysate, read-out: Inhibition values (IC50) JAK3
# Procedure: The compounds of the present invention as described in the previous examples were tested in a Kinobeads™ assay as described for ZAP-70 (WO-A 2007/137867). Briefly, test compounds (at various concentrations) and the affinity matrix with the immobilized aminopyrido-pyrimidine ligand 24 were added to cell lysate aliquots and allowed to bind to the proteins in the lysate sample. After the incubation time the beads with captured proteins were separated from the lysate. Bound proteins were then eluted and the presence of JAK1, JAK2, JAK3 and TYK2 was detected and quantified using specific antibodies in a dot blot procedure and the Odyssey infrared detection system. Dose response curves for individual kinases were generated and IC50 values calculated. Kinobeads™ assays for ZAP-70 (WO-A 2007/137867) and for kinase selectivity profiling (WO-A 2006/134056) have been previously described.
# The affinity matrix was washed two times with 15 mL of lx DP buffer containing 0.2% NP40 (IGEPAL® CA-630, Sigma, #13021) and then resuspended in 1×DP buffer containing 0.2% NP40 (3% beads slurry).
# 5×DP buffer: 250 mM Tris-HCl pH 7.4, 25% Glycerol, 7.5 mM MgCl2, 750 mM NaCl, 5 mM Na3VO4; filter the 5×DP buffer through a 0.22 μm filter and store in aliquots at −80° C. The 5×DP buffer is diluted with H2O to 1×DP buffer containing 1 mM DTT and 25 mM NaF.
# Stock solutions of test compounds were prepared in DMSO. In a 96 well plate […] solution of diluted test compounds at 5 mM in DMSO were prepared. Starting with this solution a 1:3 dilution series (9 steps) was prepared. For control experiments (no test compound) a buffer containing 2% DMSO was used.
# Molt4 cells (ATCC catalogue number CRL-1582) and Ramos cells (ATCC catalogue number CRL-1596) were grown in 1 L Spinner flasks (Integra Biosciences, #182101) in suspension in RPMI 1640 medium (Invitrogen, #21875-034) supplemented with 10% Fetal Bovine Serum (Invitrogen) at a density between 0.15×10^6 and 1.2×10^6 cells/mL. Cells were harvested by centrifugation, washed once with 1×PBS buffer (Invitrogen, #14190-094) and cell pellets were frozen in liquid nitrogen and subsequently stored at −80° C. Cells were homogenized in a Potter S homogenizer in lysis buffer: 50 mM Tris-HCl, 0.8% NP40, 5% glycerol, 150 mM NaCl, 1.5 mM MgCl2, 25 mM NaF, 1 mM sodium vanadate, 1 mM DTT, pH 7.5. One complete EDTA-free tablet (protease inhibitor cocktail, Roche Diagnostics, 1873580) per 25 mL buffer was added. The material was dounced 10 times using a mechanized POTTER S, transferred to 50 mL falcon tubes, incubated for 30 minutes on ice and spun down for 10 minutes at 20,000 g at 4° C. (10,000 rpm in Sorvall SLA600, precooled). The supernatant was transferred to an ultracentrifuge (UZ)-polycarbonate tube (Beckmann, 355654) and spun for 1 hour at 100.000 g at 4° C. (33.500 rpm in Ti50.2, precooled). The supernatant was transferred again to a fresh 50 mL falcon tube, the protein concentration was determined by a Bradford assay (BioRad) and samples containing 50 mg of protein per aliquot were prepared. The samples were immediately used for experiments or frozen in liquid nitrogen and stored frozen at −80° C.
# Cell lysate (approximately 50 mg protein per plate) was thawed in a water bath at room temperature and then stored on ice. To the thawed cell lysate 1×DP 0.8% NP40 buffer containing protease inhibitors (1 tablet for 25 mL buffer; EDTA-free protease inhibitor cocktail; Roche Diagnostics 1873580) was added in order to reach a final protein concentration of 10 mg/mL total protein. The diluted cell lysate was stored on ice. Mixed Molt4/Ramos lysate was prepared by combining one volume of Molt4 lysate and two volumes of Ramos lysate (ratio 1:2).
# To a 96 well filter plate (Multiscreen HTS, BV Filter Plates, Millipore #MSBVN1250) were added per well: 100 μL affinity matrix (3% beads slurry), […], of compound solution, and 50 μL of diluted lysate. […]
row,IC50 [nM],Structure (SMILES)
1,< 100,OCCn1cc(Nc2ncc(F)c(N[C@H](CO)c3cc(F)ccc3F)n2)cn1 [Compound 147]
2,< 100,CNC(=O)Cn1cc(Nc2ncc(F)c(N[C@H](CO)c3ccccc3)n2)cn1 [Compound 111]
